Bridge positions count the residues as written; N and C are the ends. Square brackets hold non-standard residues; d marks the D form. Primed or numbered codes have the meaning given here. Ends that are not written are not given here. Gla′ = carboxylated glutamic acid

Assay [1] relates to Adiponectin expression in WT adipocytes. The assay is described as follows: Adiponectin expression in adipocytes treated with osteocalcin (real time PCR). Type of assay: cell-based, mouse. On the procedure: (§1) FIG. 7A-O. Esp−/− Mice Are a Model of Increased Osteocalcin Bioactivity. (FIGS. 7A-G) Comparison between 6-week-old WT, Esp−/, Ocn+/−, and Esp−/−; Ocn+/− mice. (FIG. 7A) Blood glucose levels. (FIG. 7B) Serum insulin levels. (FIG. 7C) Serum adiponectin levels. (FIG. 7D) GTT. (FIG. 7E) ITT. (FIG. 7F) GSIS test. (FIG. 7G) Quantification of the number of Ki67-immunoreactive cells in pancreatic islets. […] (FIG. 7K) Expression of Adiponectin in WT adipocytes cultured in presence of vehicle or of 1 ng/ml of commercially available carboxylated osteocalcin (Immunotopics) or bacterially produced uncarboxylated osteocalcin. (FIG. 7L) Expression of Insulin and Cyclin D1 in WT islets cultured in presence of 0.3 ng/ml of bacterially produced uncarboxylated osteocalcin or vehicle. (FIG. 7M) Metabolic parameters and total serum osteocalcin levels in control and obese patients. (FIG. 7N-O) Quantification of carboxylated osteocalcin (HA-bound osteocalcin) in control and obese patients. In (FIGS. 7A)-(C) and (FIGS. G)-(L): *p<0.05 versus WT (Student's t test); in (FIG. D)-(F), °p<0.05 versus WT and *p % 0.001 versus WT (ANOVA followed by post hoc analysis).
FIG. 15. […] Wt adipocytes were treated for 4 hours with recombinant full-length osteocalcin (1-46) or a truncated form (1-36) or vehicle. Adiponectin expression was then quantified by real time PCR.
Primary adipocytes were isolated from epididymal fat pads by collagenase digestion. Briefly, minced adipose tissue was digested by 1 mg/ml collagenase P in KRP Buffer (20 mM HEPES, 120 mM NaCl, 6 mM KCl, 1.2 mM MgSO4, 1 mM CaCl2, 0.6 mM Na2HPO4, 0.4 mM NaH2PO4, 2.5 mM D-glucose, 2% BSA, pH 7.4) for 1 h at 37° C. The isolated cells were washed twice with KRP Buffer before being cultured in αMEM/1% FBS at 37° C. in 5% CO2.
Gene expression analyses. All gene expression analyses were performed using real time PCR. DNAse I-treated total RNA was converted to cDNA with the SuperScript III kit (Invitrogen). Real-time PCR were performed using the Taq SYBR Green Supermix with ROX (Biorad) on an MX3000 instrument (Stratagene); beta-actin amplification was used as an internal reference for each sample. All primers were from SuperArray.
A fragment of uncarboxylated osteocalcin is biologically active. Experiments were performed to test whether truncated osteocalcin was as effective as full-length uncarboxylated osteocalcin in stimulating adiponectin secretion from mouse adipocytes in vitro. Wild type adipocytes were treated for 4 hours with recombinant full-length osteocalcin (1-46) or a truncated form (1-36) (having a deletion of the first ten amino acids from the C-terminal end) or vehicle. Adiponectin expression was then quantified by real time PCR. […]
(Quantitative PCR measures a nucleic acid by following its amplification.)

The next assay has as its system wild type osteoblasts. The assay is described as follows: Isoproterenol on wild type osteoblasts: mRNA levels by quantitative PCR. The assay is classed as cell-based. The source says: The sympathetic nervous system positively regulates OST-PTP expression. It was discovered that sympathetic nervous system (SNS) activity positively regulates Esp expression in osteoblasts. […] Thus, decreasing sympathetic activity should lead to a decrease in Esp expression and thereby to an increase in the undercarboxylated, active form of osteocalcin.

In assay [2] the test system is Adiponectin expression in WT adipocytes. Nature of the assay: Co-culture of adipocytes with warfarin-treated osteoblasts: adiponectin expression. As to conditions: warfarin-treated vs vehicle-treated osteoblasts (FIG. 7J). The assay is classed as cell-based, mouse. On the procedure:
as §1
Co-culture of osteoblasts and adipocytes to study regulation of adiponectin expression/secretion by osteocalcin. A co-culture assay was developed between osteoblasts and adipocytes to analyze modifications in adiponectin expression. […]

In assay [3] the test system is gamma-carboxylation of osteocalcin in osteoblasts. The assay is described as follows: Osteocalcin/hydroxyapatite (HA) binding assay of medium from warfarin-treated osteoblasts. The assay is classed as cell-based, mouse. On the procedure: as §1
Cell culture experiments. […]
Osteocalcin/hydroxyapatite (HA) binding assay. […] Osteocalcin present in eluates and initial samples was measured by IRMA. […]

For assay [4] the following is noted: hydroxyapatite competition studies; cited from earlier work.

Turning to “1-36 fragment of uncarboxylated osteocalcin: Recombinant truncated mouse osteocalcin (1-36), ten amino acids deleted from the C-terminal end (YLGASVPSPDPLEPTREQCELNPACDELSDQYGLKT; not fully specified; ends and bridges not checked; UniProt P86546 50-85, looked up, fragment)”, the “increase of Adiponectin expression” value in assay [1] (wild type adipocytes treated for 4 hours, real time PCR, vs vehicle) was about 1.8 fold. Besides, the “potency in inducing adiponectin expression compared with native osteocalcin” value in assay [1] (wt adipocytes, 4 hours, in vitro) is recorded as “as potent as native osteocalcin”.

For `CC(C)NCC(O)c1ccc(O)c(O)c1` (stereo not drawn) [isoproterenol], in the assay with wild type osteoblasts, the “expression of gamma-carboxylase (ggcx)” value is reported as “did not increase expression”, the expression of osteocalcin entry was “did not increase expression” and the expression of vkor entry was “did not increase expression”. The “increase of Esp expression” value in the assay on wild type osteoblasts (at 8 hours) is recorded as “remains steady”. The “increase of Esp expression” value in the assay with wild type osteoblasts (by 4 hours) was “about 80%”.

Regarding `CC(=O)CC(c1ccccc1)c1c(O)c2ccccc2oc1=O` (stereo not drawn) [warfarin], in assay [2], the “induction of adiponectin expression in co-cultured adipocytes” value is on record as “significantly higher extent”. Moreover, in assay [3] (conditioned medium of warfarin-treated osteoblasts vs vehicle (FIG. 7I)), the “percentage of osteocalcin bound to HA” value is on record as “marked decrease”. In addition, in assay [3] (warfarin-treated vs vehicle-treated osteoblasts (FIG. 7I)), the “levels of undercarboxylated osteocalcin produced by osteoblasts” value was “elevated levels”.

Consider “Decarboxylated osteocalcin: thermally decarboxylated osteocalcin of the literature (YLYQWLGAPVPYPDPLEPRREVCELNPDCDELADHIGFQEAYRRFYGPV; not fully specified; ends and bridges not checked; UniProt P02818 52-100, looked up)”, for which the “competition with ^125I-labeled osteocalcin bound to hydroxyapatite” value in assay [4] is “fail to compete”.

Take “carboxylated osteocalcin: commercially available carboxylated osteocalcin (Immunotopics) (YLYQWLGAPVPYPDPL[Gla′]PRR[Gla′]VC[Gla′]LNPDCDELADHIGFQEAYRRFYGPV; disulfide 23-29; ends not checked; also: carboxylated (Gla), sites not given here; UniProt P02818 52-100, looked up) [reference compound]”: the “induction of adiponectin expression” value in assay [1] (WT adipocytes, 1 ng/ml (FIG. 7K)) was “failed to induce adiponectin expression”.

The values above are taken from patent publication US9746463B2 (THE TRUSTEES OF COLUMBIA UNIVERSITY IN THE CITY OF NEW YORK, priority 2006, dated 2017).
